Measurements: ChEMBL document CHEMBL1201862, “PubChem BioAssay data set” (2004)
Active and inactive are the calls of the source.

How the values were obtained:
[1] = molecular target: T1, Sentrin-specific protease 1 (Homo sapiens, UniProt Q9P0U3); assay: Dose response confirmation of small molecule inhibitors of the catalytic domain of the SUMO protease, SENP1 in a FRET assay.; type: functional; conditions: read-out: IC50_Mean
[2] = molecular target: T1, Sentrin-specific protease 1; assay: SENP1 catalytic domain blockers, concentration series – biochemical, kinetic FRET, dose response (AID 651697); type: functional; conditions: read-out: IC50_Mean
[3] = molecular target: T2, Endoribonuclease toxin MazF (Escherichia coli K-12, UniProt P0AE70); assay: substrate-only fluorescence increase artefacts – biochemical, single-stranded RNase substrate, counter-screen for MazEF activator project, dose response (AID 588502); type: functional
T2 sequence (P0AE70 whole entry): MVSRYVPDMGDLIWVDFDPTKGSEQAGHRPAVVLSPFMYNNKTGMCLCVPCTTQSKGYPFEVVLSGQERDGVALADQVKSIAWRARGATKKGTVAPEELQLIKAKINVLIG

[4] = molecular target: T2, Endoribonuclease toxin MazF; assay: activation of MazEF endoribonuclease cleavage – biochemical, fluorescence, single-stranded RNA substrate, uHTS hits, dose response (AID 588481); type: functional
[5] = tested on: Streptococcus; assay: GAS UMAA2166 growth inhibition – luminescence, BacTiterGlo, counter-screen for streptokinase expression inhibitor project, dose response (AID 1915); type: functional, organism-based;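 note: potency for reduction of bacterial viability or growth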
[6] = molecular target: T3, Cytochrome P450 1A2 (Homo sapiens, UniProt P05177);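 note: PubChem cytochrome P450 panel assay, CYP1A2 panel member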
T3 sequence (P05177 whole entry): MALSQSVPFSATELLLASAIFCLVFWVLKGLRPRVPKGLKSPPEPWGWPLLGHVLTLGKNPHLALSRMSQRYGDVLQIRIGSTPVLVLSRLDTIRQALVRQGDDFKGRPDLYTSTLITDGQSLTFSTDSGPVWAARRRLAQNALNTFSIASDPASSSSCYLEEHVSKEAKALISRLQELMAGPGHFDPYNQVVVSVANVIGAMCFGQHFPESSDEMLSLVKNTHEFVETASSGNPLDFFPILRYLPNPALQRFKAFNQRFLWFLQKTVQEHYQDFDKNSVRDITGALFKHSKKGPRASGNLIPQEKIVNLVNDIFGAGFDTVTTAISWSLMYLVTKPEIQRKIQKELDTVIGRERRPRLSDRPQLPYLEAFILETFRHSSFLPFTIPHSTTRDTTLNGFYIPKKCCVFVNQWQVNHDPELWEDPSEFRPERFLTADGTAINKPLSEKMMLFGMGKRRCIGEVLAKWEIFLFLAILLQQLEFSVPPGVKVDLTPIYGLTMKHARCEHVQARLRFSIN

[7] = viability of HCT116 lacking mutant beta-catenin – cell-based, human colon tumor, dose response (AID 1045); type: functional;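 note: HCT116 colon tumor cells with beta catenin knocked out; cells exposed to compound for 60 hours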
[8] = molecular target: T4, Methionyl-tRNA synthetase, putative (Trypanosoma brucei brucei, UniProt Q38C91); type: functional, Trypanosoma brucei brucei strain 927/4 GUTat10.1
T4 sequence (Q38C91 whole entry): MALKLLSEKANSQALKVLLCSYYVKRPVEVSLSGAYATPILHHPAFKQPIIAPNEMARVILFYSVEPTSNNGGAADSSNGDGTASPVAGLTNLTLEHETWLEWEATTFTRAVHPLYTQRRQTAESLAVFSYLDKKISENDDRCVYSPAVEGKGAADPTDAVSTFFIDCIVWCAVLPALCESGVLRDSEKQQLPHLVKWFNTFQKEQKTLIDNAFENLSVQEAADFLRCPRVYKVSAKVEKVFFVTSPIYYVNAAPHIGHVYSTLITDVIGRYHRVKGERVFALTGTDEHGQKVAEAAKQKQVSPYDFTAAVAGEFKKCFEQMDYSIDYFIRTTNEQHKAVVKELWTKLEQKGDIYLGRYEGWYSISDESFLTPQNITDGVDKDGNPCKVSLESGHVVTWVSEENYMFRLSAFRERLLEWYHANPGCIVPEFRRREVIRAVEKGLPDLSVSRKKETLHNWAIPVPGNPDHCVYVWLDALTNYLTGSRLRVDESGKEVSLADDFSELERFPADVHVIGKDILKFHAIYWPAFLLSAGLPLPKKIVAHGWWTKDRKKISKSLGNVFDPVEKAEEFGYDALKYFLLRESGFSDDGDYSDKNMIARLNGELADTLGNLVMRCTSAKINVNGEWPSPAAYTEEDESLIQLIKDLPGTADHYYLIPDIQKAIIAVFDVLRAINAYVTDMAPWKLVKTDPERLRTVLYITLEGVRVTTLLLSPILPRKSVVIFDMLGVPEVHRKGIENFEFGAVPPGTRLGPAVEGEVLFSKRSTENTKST

[9] = viability of PTEN-deleted HCT116 cells – cell-based, HCT116 PTEN knockout, dose response (AID 1047); type: functional;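 note: HCT116 colon tumor cells with PTEN knocked out; cells exposed to compound for 60 hours before readout; potency for loss of cell viability measured by luminescence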
[10] = molecular target: T5, Streptokinase A (Streptococcus pyogenes serotype M1, UniProt P10520); assay: viability-normalized secreted streptokinase activity reduction – plasminogen activation absorbance, OD405, dose response (AID 1914); type: functional, Streptococcus pyogenes M1 GAS;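 note: secreted streptokinase activity via plasminogen activation per viability signal from cell pellet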
T5 sequence (P10520 whole entry): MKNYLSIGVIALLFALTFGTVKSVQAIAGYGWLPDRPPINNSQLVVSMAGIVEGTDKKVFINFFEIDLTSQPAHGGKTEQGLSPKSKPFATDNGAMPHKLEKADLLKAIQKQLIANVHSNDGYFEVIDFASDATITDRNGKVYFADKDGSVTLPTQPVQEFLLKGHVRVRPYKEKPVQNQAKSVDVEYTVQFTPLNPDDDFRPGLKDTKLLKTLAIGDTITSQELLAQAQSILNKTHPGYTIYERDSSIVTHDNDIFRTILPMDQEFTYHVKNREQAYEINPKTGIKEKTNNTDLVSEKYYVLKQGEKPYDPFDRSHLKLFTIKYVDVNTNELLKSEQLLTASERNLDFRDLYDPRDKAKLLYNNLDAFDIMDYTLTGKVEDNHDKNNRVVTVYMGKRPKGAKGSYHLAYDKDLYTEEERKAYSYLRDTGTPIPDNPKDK

[11] = molecular target: T6, Calpain-2 catalytic subunit (Sus scrofa, UniProt P43367); assay: m-calpain protease blockers, concentration series – biochemical, fluorogenic peptide substrate, dose response (AID 1420); type: functional
T6 sequence (P43367 whole entry): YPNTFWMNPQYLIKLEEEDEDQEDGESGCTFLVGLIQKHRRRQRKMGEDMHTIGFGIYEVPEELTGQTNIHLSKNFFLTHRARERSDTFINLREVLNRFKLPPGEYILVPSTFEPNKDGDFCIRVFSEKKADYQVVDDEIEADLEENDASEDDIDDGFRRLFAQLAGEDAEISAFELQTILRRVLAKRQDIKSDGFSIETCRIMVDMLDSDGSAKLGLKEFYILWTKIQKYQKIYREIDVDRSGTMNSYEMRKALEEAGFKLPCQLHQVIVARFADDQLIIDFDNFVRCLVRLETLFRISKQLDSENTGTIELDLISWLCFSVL

[12] = Counterscreen for inhibitors of Trypanosoma brucei methionyl tRNA synthetase (MetRS): Luminescence-based cell-based high throughput dose response assay to identify compounds that are cytotoxic to Jurkat human T lymphocyte cells.; type: functional
[13] = Trypanosoma cruzi growth suppression in host cells – NIH3T3 host cells, beta-gal luminescence, confirmation (AID 2044); type: functional, cell-based;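 note: intracellular parasites grown in NIH/3T3 mouse fibroblasts as host cells; luminescent beta-galactosidase reporter signal from transgenic T. cruzi replicating inside host cells; inhibitors lower the luminescence signal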
[14] = NIH3T3 cell viability loss – ATP luminescence, mouse fibroblasts, counter-screen, dose response (AID 2010); type: functional, cell-based;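 note: cells exposed to compound for about 90 hours before reading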
[15] = molecular target: T4, Methionyl-tRNA synthetase, putative; type: functional, Trypanosoma brucei brucei strain 927/4 GUTat10.1; remark: listed apart in the source
[16] = tested on: Streptococcus sp. 'group A'; assay: Streptococcus pyogenes SK(-)GAS viability under kanamycin – luminescence, BacTiterGlo, confirmation, counter-screen for streptokinase expression inhibitor project, dose response (AID 1900); type: functional, organism-based
[17] = molecular target: Tyrosine-protein phosphatase non-receptor type 22 (Homo sapiens, UniProt Q9Y2R2); assay: PTPN22 enzyme inhibitors – biochemical, fluorescence, LYP catalytic domain, selectivity assay for LMPTP inhibitor project, dose response (AID 652006); type: functional; conditions: read-out: IC50_Mean
Tyrosine-protein phosphatase non-receptor type 22, sequence (Q9Y2R2 whole entry, the tested form may be a part): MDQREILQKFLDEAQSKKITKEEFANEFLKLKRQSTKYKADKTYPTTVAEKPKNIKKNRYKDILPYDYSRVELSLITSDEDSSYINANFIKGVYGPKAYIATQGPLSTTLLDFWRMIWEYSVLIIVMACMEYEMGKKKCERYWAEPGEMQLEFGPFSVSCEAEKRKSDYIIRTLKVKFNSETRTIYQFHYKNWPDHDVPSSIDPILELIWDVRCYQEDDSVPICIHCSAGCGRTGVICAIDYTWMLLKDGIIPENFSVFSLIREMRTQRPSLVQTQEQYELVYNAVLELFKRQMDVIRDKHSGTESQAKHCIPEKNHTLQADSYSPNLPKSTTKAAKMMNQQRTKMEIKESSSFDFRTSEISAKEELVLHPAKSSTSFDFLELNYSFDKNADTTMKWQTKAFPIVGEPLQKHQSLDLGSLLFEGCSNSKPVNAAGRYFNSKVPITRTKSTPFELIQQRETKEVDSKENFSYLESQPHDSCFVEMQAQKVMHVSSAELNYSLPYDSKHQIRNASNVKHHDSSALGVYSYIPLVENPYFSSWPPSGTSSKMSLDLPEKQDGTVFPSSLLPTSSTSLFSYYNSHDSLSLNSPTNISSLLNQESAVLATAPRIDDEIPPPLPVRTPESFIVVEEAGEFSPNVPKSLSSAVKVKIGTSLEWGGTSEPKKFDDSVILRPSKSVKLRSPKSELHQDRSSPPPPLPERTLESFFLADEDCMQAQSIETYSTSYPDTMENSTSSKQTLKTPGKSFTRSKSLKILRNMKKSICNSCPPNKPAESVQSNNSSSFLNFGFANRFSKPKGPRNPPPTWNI

[18] = molecular target: T7, DNA repair protein RAD52 homolog (Homo sapiens, UniProt P43351); type: functional, biochemical
T7 sequence (P43351 whole entry): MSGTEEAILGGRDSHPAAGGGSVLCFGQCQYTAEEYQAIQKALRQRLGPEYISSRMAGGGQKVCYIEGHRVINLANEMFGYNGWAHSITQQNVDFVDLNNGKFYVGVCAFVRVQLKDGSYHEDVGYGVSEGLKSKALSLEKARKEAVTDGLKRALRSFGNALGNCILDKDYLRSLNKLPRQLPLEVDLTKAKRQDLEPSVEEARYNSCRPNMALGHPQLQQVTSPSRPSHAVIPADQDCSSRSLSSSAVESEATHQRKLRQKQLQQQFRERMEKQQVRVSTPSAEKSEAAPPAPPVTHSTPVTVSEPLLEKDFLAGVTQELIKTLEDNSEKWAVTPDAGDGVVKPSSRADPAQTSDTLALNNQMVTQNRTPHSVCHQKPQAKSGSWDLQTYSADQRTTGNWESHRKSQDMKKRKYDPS

[19] = molecular target: T8, Low molecular weight phosphotyrosine protein phosphatase (Homo sapiens, UniProt P24666); type: functional; conditions: read-out: IC50_Mean
T8 sequence (P24666 whole entry): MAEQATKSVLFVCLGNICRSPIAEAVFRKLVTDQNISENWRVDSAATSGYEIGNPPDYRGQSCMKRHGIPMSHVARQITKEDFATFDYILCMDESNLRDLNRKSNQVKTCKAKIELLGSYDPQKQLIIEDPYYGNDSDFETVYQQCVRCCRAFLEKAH

[20] = molecular target: SWI/SNF-related matrix-associated actin-dependent regulator of chromatin subfamily A member 2 (Homo sapiens, UniProt P51531); assay: Luminescence-based cell-based high throughput dose response assay to identify activators of the function of SWI/SNF related, matrix associated, actin dependent regulator of chromatin, subfamily a, member 2 (SMARCA2, BRM).; type: functional
SWI/SNF-related matrix-associated actin-dependent regulator of chromatin subfamily A member 2, sequence (P51531 whole entry): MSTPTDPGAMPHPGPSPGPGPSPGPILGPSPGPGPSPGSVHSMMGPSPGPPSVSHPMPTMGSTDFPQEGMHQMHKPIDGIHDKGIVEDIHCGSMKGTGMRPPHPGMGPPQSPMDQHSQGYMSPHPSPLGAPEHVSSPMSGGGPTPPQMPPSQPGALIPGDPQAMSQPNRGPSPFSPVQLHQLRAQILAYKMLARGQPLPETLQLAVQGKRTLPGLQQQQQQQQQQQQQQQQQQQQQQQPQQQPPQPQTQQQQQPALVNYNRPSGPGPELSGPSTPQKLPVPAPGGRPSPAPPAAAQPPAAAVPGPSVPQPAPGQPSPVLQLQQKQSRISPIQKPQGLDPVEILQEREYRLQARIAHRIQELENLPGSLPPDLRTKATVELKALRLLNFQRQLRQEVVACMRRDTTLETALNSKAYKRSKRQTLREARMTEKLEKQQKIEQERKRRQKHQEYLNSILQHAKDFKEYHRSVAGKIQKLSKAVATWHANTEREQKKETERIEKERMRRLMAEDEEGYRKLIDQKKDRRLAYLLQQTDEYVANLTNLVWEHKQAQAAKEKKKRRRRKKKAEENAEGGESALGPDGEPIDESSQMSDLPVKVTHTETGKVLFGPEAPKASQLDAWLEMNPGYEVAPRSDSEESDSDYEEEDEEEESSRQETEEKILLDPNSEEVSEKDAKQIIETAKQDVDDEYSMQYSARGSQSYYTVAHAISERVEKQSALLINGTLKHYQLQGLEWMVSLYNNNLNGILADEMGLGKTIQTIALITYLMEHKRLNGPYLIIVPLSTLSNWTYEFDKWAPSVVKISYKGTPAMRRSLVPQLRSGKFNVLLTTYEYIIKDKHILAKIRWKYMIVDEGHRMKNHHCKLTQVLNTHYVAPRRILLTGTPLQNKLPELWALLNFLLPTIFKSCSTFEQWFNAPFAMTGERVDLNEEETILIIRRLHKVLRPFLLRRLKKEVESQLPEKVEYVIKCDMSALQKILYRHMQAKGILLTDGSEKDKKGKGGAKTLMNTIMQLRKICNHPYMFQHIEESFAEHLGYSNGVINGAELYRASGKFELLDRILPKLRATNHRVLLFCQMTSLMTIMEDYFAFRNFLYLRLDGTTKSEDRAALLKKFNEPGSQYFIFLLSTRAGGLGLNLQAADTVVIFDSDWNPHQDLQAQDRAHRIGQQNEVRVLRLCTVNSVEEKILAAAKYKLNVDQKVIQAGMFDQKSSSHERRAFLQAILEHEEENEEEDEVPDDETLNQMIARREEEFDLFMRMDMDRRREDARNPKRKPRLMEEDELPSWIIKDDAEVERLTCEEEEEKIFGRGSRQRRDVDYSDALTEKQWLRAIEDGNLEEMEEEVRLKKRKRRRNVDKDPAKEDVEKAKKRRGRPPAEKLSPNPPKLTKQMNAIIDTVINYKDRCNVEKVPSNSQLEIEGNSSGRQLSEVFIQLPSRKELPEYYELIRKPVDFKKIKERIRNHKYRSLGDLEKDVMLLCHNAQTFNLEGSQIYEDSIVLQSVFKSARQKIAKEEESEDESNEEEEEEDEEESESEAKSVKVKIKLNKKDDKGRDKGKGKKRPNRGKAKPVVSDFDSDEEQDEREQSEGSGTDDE

[21] = Counterscreen for activators of the function of SWI/SNF related, matrix associated, actin dependent regulator of chromatin, subfamily a, member 2 (SMARCA2, BRM): Luminescence-based cell-based high throughput dose response assay to identify non-selective compounds using the VP16 reporter assay.; type: functional
[22] = molecular target: T8, Low molecular weight phosphotyrosine protein phosphatase; type: functional; conditions: read-out: IC50_Mean; remark: listed apart in the source
[23] = molecular target: T9, DNA repair and recombination protein RAD54-like (Homo sapiens, UniProt Q92698); assay: RAD54 Holliday junction migration blockers – biochemical, fluorescence, cherry-picked samples, dose series, confirmation (AID 651657); type: functional
T9 sequence (Q92698 whole entry): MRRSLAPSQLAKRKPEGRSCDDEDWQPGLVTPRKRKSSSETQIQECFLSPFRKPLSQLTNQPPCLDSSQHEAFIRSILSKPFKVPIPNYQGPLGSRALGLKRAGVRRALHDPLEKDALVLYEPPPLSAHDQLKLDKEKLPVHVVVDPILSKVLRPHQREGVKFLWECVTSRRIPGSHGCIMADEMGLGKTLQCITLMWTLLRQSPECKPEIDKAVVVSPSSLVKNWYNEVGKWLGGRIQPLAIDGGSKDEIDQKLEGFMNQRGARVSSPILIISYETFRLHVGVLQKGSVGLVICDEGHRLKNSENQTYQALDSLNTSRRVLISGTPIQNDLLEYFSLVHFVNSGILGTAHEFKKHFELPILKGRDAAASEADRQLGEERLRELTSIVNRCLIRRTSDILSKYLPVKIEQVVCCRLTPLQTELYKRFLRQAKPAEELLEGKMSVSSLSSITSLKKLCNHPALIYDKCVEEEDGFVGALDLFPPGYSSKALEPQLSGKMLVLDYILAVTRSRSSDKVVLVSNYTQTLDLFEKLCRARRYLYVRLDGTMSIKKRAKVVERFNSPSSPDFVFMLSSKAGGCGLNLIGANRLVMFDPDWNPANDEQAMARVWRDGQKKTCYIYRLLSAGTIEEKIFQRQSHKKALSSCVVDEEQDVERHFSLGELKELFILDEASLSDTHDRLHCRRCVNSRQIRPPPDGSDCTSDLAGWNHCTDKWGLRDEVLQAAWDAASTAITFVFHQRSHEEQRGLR

[24] = molecular target: T10, Sentrin-specific protease 8 (Homo sapiens, UniProt Q96LD8); type: functional
T10 sequence (Q96LD8 whole entry): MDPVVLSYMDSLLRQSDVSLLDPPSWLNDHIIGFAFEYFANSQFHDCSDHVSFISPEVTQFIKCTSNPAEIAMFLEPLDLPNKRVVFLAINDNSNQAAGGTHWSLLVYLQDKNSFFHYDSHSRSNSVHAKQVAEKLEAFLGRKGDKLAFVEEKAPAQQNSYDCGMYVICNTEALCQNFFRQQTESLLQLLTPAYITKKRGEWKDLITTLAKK

[25] = molecular target: T11, Caspase-3 (Homo sapiens, UniProt P42574); assay: Dose-response confirmation of uHTS inhibitor hits of Sentrin-Specific Protease 8 in a Caspase-3 Fluorescence assay.; type: functional
T11 sequence (P42574 whole entry): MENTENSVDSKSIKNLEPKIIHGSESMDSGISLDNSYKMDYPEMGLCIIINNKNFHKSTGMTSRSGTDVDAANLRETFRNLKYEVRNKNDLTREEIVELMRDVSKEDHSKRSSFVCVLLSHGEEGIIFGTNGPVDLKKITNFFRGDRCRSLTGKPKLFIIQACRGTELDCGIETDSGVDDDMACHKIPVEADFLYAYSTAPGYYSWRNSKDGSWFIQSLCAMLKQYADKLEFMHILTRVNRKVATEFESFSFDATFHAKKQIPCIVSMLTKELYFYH

[26] = molecular target: T10, Sentrin-specific protease 8; type: functional; remark: listed apart in the source

T1 sequence (Q9P0U3 whole entry, the tested form may be a part): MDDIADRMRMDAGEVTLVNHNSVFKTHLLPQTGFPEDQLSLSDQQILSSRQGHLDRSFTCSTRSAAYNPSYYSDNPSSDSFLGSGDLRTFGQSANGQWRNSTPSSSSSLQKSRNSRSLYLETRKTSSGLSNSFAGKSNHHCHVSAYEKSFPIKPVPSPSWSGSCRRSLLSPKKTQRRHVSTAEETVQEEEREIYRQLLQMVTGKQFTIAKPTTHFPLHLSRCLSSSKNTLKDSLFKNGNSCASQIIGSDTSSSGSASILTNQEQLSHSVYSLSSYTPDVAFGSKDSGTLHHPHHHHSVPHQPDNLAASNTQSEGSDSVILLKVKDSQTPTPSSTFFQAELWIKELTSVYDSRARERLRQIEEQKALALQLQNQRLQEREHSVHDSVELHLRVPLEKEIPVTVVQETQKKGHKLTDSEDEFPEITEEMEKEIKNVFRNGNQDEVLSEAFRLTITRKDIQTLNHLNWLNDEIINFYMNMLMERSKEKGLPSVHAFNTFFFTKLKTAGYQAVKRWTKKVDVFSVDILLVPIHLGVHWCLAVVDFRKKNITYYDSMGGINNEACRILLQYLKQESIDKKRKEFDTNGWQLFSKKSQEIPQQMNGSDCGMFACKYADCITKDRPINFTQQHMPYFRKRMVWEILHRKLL

For `CN(N=Cc1cccc2cccnc12)c1ccc([N+](=O)[O-])cc1[N+](=O)[O-]`, the IC50 [1] was 4.08 µM (active), the IC50 [2] was 8.19 µM (active) and the EC50 [3] was 3.55 µM (active). For the same molecule, the EC50 [4] was > 99 µM (inactive).

For `CCN1C(=O)C(CC(=O)Nc2ccc(Br)cc2)N(CCCc2ccccc2)C1=S` (stereo unspecified), the EC50 [5] was 6.98 µM (active), the AC50 [6] was 14.1 µM (inconclusive) and the EC50 [7] was 16.1 µM (active). For the same molecule, the IC50 [8] was 5.93 µM (active), the EC50 [9] was 15.3 µM (active) and the EC50 [10] was 1.98 µM (active). The IC50 [11] was 5.99 µM (not active), the IC50 [12] was 41.5 µM (inactive) and the EC50 [13] was 2.31 µM (active). For the same molecule, the EC50 [14] was > 60 µM (not active), the IC50 [15] was 6.6 µM (active) and the EC50 [16] was 3.15 µM (active).

With `Cc1nccc2cc3[nH]c4ccccc4c3cc12` the IC50 [17] was 52.5 µM (inactive), the AC50 [18] was 1.96 µM (active) and the IC50 [19] was 3.18 µM (active). The EC50 [20] was 5.87 µM (active), the EC50 [21] was > 91.2 µM (inactive) and the IC50 [22] was 2.59 µM (active). The AC50 [23] was 2.49 µM (active).

In the case of `COc1ccc(Cc2nnc(SCC(=O)N3CCc4ccccc4C3)o2)cc1`, the IC50 [24] is reported as 10.3 µM (active), the IC50 [25] is reported as 48.1 µM (active) and the IC50 [26] is reported as 72.5 µM (inactive).
